In one series the test system is human NCI-H69 SCLC. Briefly: H69 xenograft efficacy study, tumor growth inhibition. Format: in vivo, mice. On the procedure: Applicants assessed the activity of maytansinoid conjugates in vivo. In these experiments, the ability of conjugates to affect the growth of human NCI-H69 SCLC was tested. For the in vivo study, 8 week old female NCR nude mice were inoculated subcutaneously into the right flank with 2 million cells in 1:1 RPMI 1640 (Invitrogen, Carlsbad, Calif.)/Matrigel® (BD Biosciences, San Jose, Calif.). Tumor measurements were taken twice weekly, using vernier calipers. Tumor volume was calculated using the formula: V=0.5×width×width×length.
When tumors approached a volume of 200 mm^3, mice were randomized into four groups of ten animals. Mice were treated with vehicle control (10% propylene glycol in water for injection) and maytansinoid conjugates (10% propylene glycol in water for injection). Final tumor volumes were analyzed using with a one-way analysis of variance and Tukey multiple comparison test.

Another series has as its target human SSTR2 (Homo sapiens, UniProt P30874). The series is described as follows: Radioligand-receptor binding assay, [125I] somatostatin, membranes from SSTR2 expressing CHO-K1 cells. In short, it runs like this:
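CHO-K1 SSTR2 membranes incubated 4 h with 0.03 nM [125I] somatostatin and conjugates in a 10-point, 6-fold series from 10 uM. Bound radioligand measured after filtration and washing; IC50 by non-linear least-squares regression.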

For series [1], the system named is NCI-H524 (ATCC) human lung cancer cells. It is filed as cell-based. In short, it runs like this:
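NCI-H524 cells (5,000/well) exposed to conjugates for 6 hours, washed, then grown a further 66 hours; ten-point threefold dilutions from 20 μM. Proliferation by CellTiter-Glo versus vehicle; IC50 by four-parameter nonlinear regression, measured with and without octreotide competition.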

Series [2] is described as follows: Ligand charge of maytansinoid conjugates. It is filed as physicochemical.
The test system of series [3] is NCI-H69 SCLC (small cell lung cancer) tumor cells. Briefly: H69 tumor PK. Format: in vivo. As for the experimental part:
Half-life (t1/2) of maytansinoid conjugates were measured in rat plasma and rat liver microsomes (LM). PK values of maytansinoid conjugates in NCI-H69 SCLC (small cell lung cancer) tumor cells were measured.

The nature of series [4]: Chrom LogP of maytansinoid conjugates. Format: physicochemical.
Setting [5] is: read-out: H524 IC50 6 h, 6 hours treatment, further 66 hours incubation.
Where [6] appears, read: read-out: H524 IC50 with 100 μM octreotide 6 h, with 100 μM octreotide competition, 6 h treatment.

Where two headings read alike, the source gives them in different places.

human SSTR2, sequence (P30874 whole entry): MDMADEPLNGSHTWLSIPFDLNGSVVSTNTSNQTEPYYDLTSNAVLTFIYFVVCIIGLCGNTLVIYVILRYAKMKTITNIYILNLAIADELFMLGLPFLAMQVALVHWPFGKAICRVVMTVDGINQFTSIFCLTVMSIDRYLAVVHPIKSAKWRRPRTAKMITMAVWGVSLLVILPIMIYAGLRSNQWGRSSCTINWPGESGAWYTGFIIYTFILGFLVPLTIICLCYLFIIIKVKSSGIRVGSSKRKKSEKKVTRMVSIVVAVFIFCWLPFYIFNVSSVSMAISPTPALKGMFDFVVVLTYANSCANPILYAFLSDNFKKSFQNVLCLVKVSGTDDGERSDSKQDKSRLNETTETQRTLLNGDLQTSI

The term Ki denotes a measure of affinity in units of concentration, obtained from inhibition or displacement. For orientation: IC50 means the concentration needed to halve the response being measured. For orientation: chromatographic logP means lipophilicity estimated from chromatographic retention. The low end stands for a more hydrophilic compound, the high end for a more lipophilic compound. In the case of `COc1cc2cc(c1Cl)N(C)C(=O)C[C@H](OC(=O)[C@H](C)N(C)C(=O)CCSSC(C)(C)[C@H](NC(=O)[C@@H]1CSSC[C@H](NC(=O)[C@@H](Cc3ccccc3)NS(C)(=O)=O)C(=O)N[C@@H](Cc3ccc(O)cc3)C(=O)N[C@H](Cc3c[nH]c4ccccc34)C(=O)N[C@@H](CCCCN)C(=O)N[C@@H]([C@@H](C)O)C(=O)N1)C(N)=O)[C@]1(C)O[C@H]1[C@H](C)[C@@H]1C[C@@](O)(NC(=O)O1)[C@H](OC)/C=C/C=C(\C)C2` [Conjugate 10], the “TGI % Day 11” value in the series on human NCI-H69 SCLC (0.7 mg/kg once weekly for two doses, Day 11) is 48%. For the same compound, in the series with human NCI-H69 SCLC (0.7 mg/kg once weekly for two doses, Day 14), the “TGI % Day 14” value was 59%. In addition, in the series on human NCI-H69 SCLC (0.7 mg/kg once weekly for two doses, Day 18), the “TGI % Day 18” value is recorded as 54%. Moreover, in the series on human NCI-H69 SCLC (0.7 mg/kg once weekly for two doses, Day 21), the “TGI % Day 21” value is reported as 53%. The “TGI % Day 25” value with human NCI-H69 SCLC (0.7 mg/kg once weekly for two doses, Day 25) is 42%. Further, the “TGI % Day 13” value in the series on human NCI-H69 SCLC (1.5 mg/kg once weekly for two doses, Day 13) stood at 92.2%. Also, the “TGI % Day 17” value with human NCI-H69 SCLC (1.5 mg/kg once weekly for two doses, Day 17) is on record as 95.6%. The “TGI % Day 20” value in the series with human NCI-H69 SCLC (1.5 mg/kg once weekly for two doses, Day 20) turned out to be 97.8%. Besides, in the series with human NCI-H69 SCLC (1.5 mg/kg once weekly for two doses, Day 24), the “TGI % Day 24” value is on record as 99.5%. Further, the “TGI % Day 30” value in the series with human NCI-H69 SCLC (1.5 mg/kg once weekly for two doses, Day 30) was found to be 99.6%. The “TGI % at day 22” value is 53% with human NCI-H69 SCLC (Dose 0.60 × 2 mg/kg, total dose 1.20 mg/kg) and 98% with human NCI-H69 SCLC (Dose 1.54 × 2 mg/kg, total dose 3.08 mg/kg). Further, the Ki at human SSTR2 turned out to be 0.035 nM. The results for the IC50 in series [1] (setting [5]) and in series [1] (setting [6]) were 3.3 nM and 246 nM, respectively. The Ligand charge entry in series [2] is “+1”. The “H69 tumor PK normalized- uM/umol/kg at 1 mpk in 10% PG” value in series [3] worked out at 0.546 uM/umol/kg. The compound further registered a chromatographic logP in series [4] of 2.66.
`COc1cc2cc(c1Cl)N(C)C(=O)C[C@H](OC(=O)[C@H](C)N(C)C(=O)CCSSC[C@H](NC(=O)[C@@H]1CSSC[C@H](NC(=O)[C@@H](Cc3ccccc3)NC(=O)Nc3cc(C(F)(F)F)cc(C(F)(F)F)c3)C(=O)N[C@@H](Cc3ccc(O)cc3)C(=O)N[C@H](Cc3c[nH]c4ccccc34)C(=O)N[C@@H](CCCCN)C(=O)N[C@@H]([C@@H](C)O)C(=O)N1)C(N)=O)[C@]1(C)O[C@H]1[C@H](C)[C@@H]1C[C@@](O)(NC(=O)O1)[C@H](OC)/C=C/C=C(\C)C2` [Conjugate 38] showed a Ki on human SSTR2 of 5.34 nM. The IC50 in series [1] (setting [5]) was 261 nM; in series [1] (setting [6]) it was 296 nM. Further, in series [2], the Ligand charge result is on record as “+1”. In series [4], this compound registered a chromatographic logP of 3.47.
Taken in the same sequence, the figures for `COc1cc2cc(c1Cl)N(C)C(=O)C[C@H](OC(=O)[C@H](C)N(C)C(=O)CCSSC[C@H](NC(=O)[C@@H]1CSSC[C@H](NC(=O)[C@@H](Cc3ccccc3)NC(=O)NCCC(c3ccccc3)c3ccccc3)C(=O)N[C@@H](Cc3ccc(O)cc3)C(=O)N[C@H](Cc3c[nH]c4ccccc34)C(=O)N[C@@H](CCCCN)C(=O)N[C@@H]([C@@H](C)O)C(=O)N1)C(N)=O)[C@]1(C)O[C@H]1[C@H](C)[C@@H]1C[C@@](O)(NC(=O)O1)[C@H](OC)/C=C/C=C(\C)C2` [Conjugate 41] were 0.5 nM, 41 nM, 97 nM, “+1” and 3.29.
With `COc1cc2cc(c1Cl)N(C)C(=O)C[C@H](OC(=O)[C@H](C)N(C)C(=O)CCSSC[C@H](NC(=O)[C@@H]1CSSC[C@H](NC(=O)[C@@H](Cc3ccccc3)NC(=O)Nc3ccccc3)C(=O)N[C@@H](Cc3ccc(O)cc3)C(=O)N[C@H](Cc3c[nH]c4ccccc34)C(=O)N[C@@H](CCCCN)C(=O)N[C@@H]([C@@H](C)O)C(=O)N1)C(N)=O)[C@]1(C)O[C@H]1[C@H](C)[C@@H]1C[C@@](O)(NC(=O)O1)[C@H](OC)/C=C/C=C(\C)C2` [Conjugate 42], on human SSTR2, the affinity corresponds to a Ki of 0.042 nM. Further, the values for the 50% inhibitory concentration (IC50) in series [1] (setting [5]) and in series [1] (setting [6]) were 1.7 nM and 115 nM, respectively. Further, in series [2], the Ligand charge entry was “+1”. The chromatographic logP in series [4] was 2.87.
For `COc1cc2cc(c1Cl)N(C)C(=O)C[C@H](OC(=O)[C@H](C)N(C)C(=O)CCSSC[C@H](NC(=O)[C@@H]1CSSC[C@H](NC(=O)[C@H](N)Cc3ccccc3)C(=O)N[C@@H](Cc3ccc(O)cc3)C(=O)N[C@H](Cc3c[nH]c4ccccc34)C(=O)N[C@@H](CCCCNC(=O)NCCCCCCN)C(=O)N[C@@H]([C@@H](C)O)C(=O)N1)C(N)=O)[C@]1(C)O[C@H]1[C@H](C)[C@@H]1C[C@@](O)(NC(=O)O1)[C@H](OC)/C=C/C=C(\C)C2` [Conjugate 56], in that order: 1900 nM, 246 nM, 361 nM, “+2” and 1.92.
Taken in the same sequence, the figures for `COc1cc2cc(c1Cl)N(C)C(=O)C[C@H](OC(=O)[C@H](C)N(C)C(=O)CCSSC(C)(C)[C@H](NC(=O)[C@@H]1CSSC[C@H](NC(=O)[C@H](N)Cc3ccccc3)C(=O)N[C@@H](Cc3ccc(O)cc3)C(=O)N[C@H](Cc3c[nH]c4ccccc34)C(=O)N[C@@H](CCCCNC(=O)NCCCCCCN)C(=O)N[C@@H]([C@@H](C)O)C(=O)N1)C(N)=O)[C@]1(C)O[C@H]1[C@H](C)[C@@H]1C[C@@](O)(NC(=O)O1)[C@H](OC)/C=C/C=C(\C)C2` [Conjugate 57] were 69 nM, 408 nM, 652 nM, “+2” and 2.12.

Values taken from patent US20190125888A1, “TARGETED CONJUGATES AND PARTICLES AND FORMULATIONS THEREOF” (priority 2015, published 2019).
